From patent US20240279298A1 (BEIJING TUO JIE BIOPHARMACEUTICAL CO. LTD., priority 2021, published 2024)
Converted amounts (≈) assume the structure as drawn. Where a SMILES comes first, the peptide text is derived from it. [ ]: non-standard residue; d: D form. Aib = CC(C)(N)C(=O)O

Assays:
[1] = Maximum solubility in phosphate buffer pH 7.4; format: physicochemical; details: phosphate buffer pH 7.4, room temperature
[2] = target: T1, human glucagon receptor (GCGR) (Homo sapiens, UniProt P47871); test: Agonist activity assay for GCGR (cAMP HTRF); format: cell-based; details: normalized by the activity of the native glucagon
T1 construct: expressed in transfected cells
T1 sequence (P47871 26-477): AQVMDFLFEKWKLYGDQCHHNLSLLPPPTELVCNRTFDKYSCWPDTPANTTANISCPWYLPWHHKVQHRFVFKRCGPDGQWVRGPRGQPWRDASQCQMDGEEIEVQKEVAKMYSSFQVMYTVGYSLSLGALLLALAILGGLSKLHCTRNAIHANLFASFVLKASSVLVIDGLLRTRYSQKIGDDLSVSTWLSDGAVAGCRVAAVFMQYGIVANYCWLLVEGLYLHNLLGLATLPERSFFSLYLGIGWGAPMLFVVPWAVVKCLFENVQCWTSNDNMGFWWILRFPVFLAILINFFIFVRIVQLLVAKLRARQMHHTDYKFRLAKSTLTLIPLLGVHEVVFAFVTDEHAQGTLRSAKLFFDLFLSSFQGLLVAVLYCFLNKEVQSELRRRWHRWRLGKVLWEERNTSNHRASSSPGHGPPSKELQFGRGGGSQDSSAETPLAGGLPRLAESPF
Experimental: The activation of GCGR by related compounds will stimulate the formation of cyclic adenosine monophosphate (cAMP) in cells. Thus, the receptor activity can be monitored by cAMP production in proper cells expressing the receptor. […] The cells were passaged at least once for subsequent tests. Before testing, the cells were trypsinized, centrifuged, washed once, and resuspended in serum-free DMEM/F12 medium. The cell density was adjusted, and the cells were plated in a 96-well plate at a density of 2,500 cells/5 μL/well. […] The mixture was mixed well by moderate vibration, and incubated for 1 hour at room temperature away from light.

CC(C)C[C@H](NC(=O)[C@H](Cc1ccc(O)cc1)NC(=O)[C@H](CCCCN)NC(=O)[C@H](CO)NC(=O)[C@H](Cc1ccc(O)cc1)NC(=O)[C@H](CC(=O)O)NC(=O)[C@H](CO)NC(=O)[C@@H](NC(=O)[C@H](Cc1ccccc1)NC(=O)[C@@H](NC(=O)CNC(=O)[C@H](CCC(N)=O)NC(=O)[C@H](CO)NC(=O)[C@@H](N)Cc1c[nH]cn1)[C@@H](C)O)[C@@H](C)O)C(=O)N[C@@H](CCC(=O)O)C(=O)N[C@@H](CO)C(=O)NC(C)(C)C(=O)N[C@@H](CCCNC(=N)N)C(=O)N[C@@H](C)C(=O)N[C@@H](CCC(=O)O)C(=O)N[C@@H](CC(=O)O)C(=O)N[C@@H](Cc1ccccc1)C(=O)N[C@H](C(=O)N[C@@H](CCCNC(=N)N)C(=O)N[C@@H](Cc1c[nH]c2ccccc12)C(=O)N[C@@H](CC(C)C)C(=O)N[C@@H](CCC(=O)O)C(=O)N[C@@H](CO)C(=O)N[C@H](C(=O)O)[C@@H](C)O)C(C)C [Compound 38] (H-HSQGTFTSDYSKYLES[Aib]RAEDFVRWLEST-OH)
solubility [1]: > 16400 µg/mL

CC(C)C[C@H](NC(=O)[C@H](Cc1ccc(O)cc1)NC(=O)[C@H](CCCCN)NC(=O)[C@H](CO)NC(=O)[C@H](Cc1ccc(O)cc1)NC(=O)[C@H](CC(=O)O)NC(=O)[C@H](CO)NC(=O)[C@@H](NC(=O)[C@H](Cc1ccccc1)NC(=O)[C@@H](NC(=O)CNC(=O)[C@H](Cc1c[nH]cn1)NC(=O)[C@H](CO)NC(=O)[C@@H](N)Cc1c[nH]cn1)[C@@H](C)O)[C@@H](C)O)C(=O)N[C@@H](CC(=O)O)C(=O)N[C@@H](CC(C)C)C(=O)NC(C)(C)C(=O)N[C@@H](CCCNC(=N)N)C(=O)N[C@@H](C)C(=O)N[C@@H](CCC(N)=O)C(=O)N[C@@H](CCC(=O)O)C(=O)N[C@@H](Cc1ccccc1)C(=O)N[C@H](C(=O)N[C@@H](CCC(N)=O)C(=O)N[C@@H](Cc1c[nH]c2ccccc12)C(=O)N[C@@H](CC(C)C)C(=O)N[C@@H](CCC(=O)O)C(=O)N[C@@H](CO)C(=O)N[C@H](C(=O)O)[C@@H](C)O)C(C)C [Compound 43] (H-HSHGTFTSDYSKYLDL[Aib]RAQEFVQWLEST-OH)
solubility at 5 min [1]: 1620 µg/mL (≈ 472 µM) | Relative activity [2]: 371%

CC(C)C[C@H](NC(=O)[C@H](Cc1ccc(O)cc1)NC(=O)[C@H](CCCCN)NC(=O)[C@H](CO)NC(=O)[C@H](Cc1ccc(O)cc1)NC(=O)[C@H](CC(=O)O)NC(=O)[C@H](CO)NC(=O)[C@@H](NC(=O)[C@H](Cc1ccccc1)NC(=O)[C@@H](NC(=O)CNC(=O)[C@H](Cc1c[nH]cn1)NC(=O)[C@H](CO)NC(=O)[C@@H](N)Cc1c[nH]cn1)[C@@H](C)O)[C@@H](C)O)C(=O)N[C@@H](CC(=O)O)C(=O)N[C@@H](CC(C)C)C(=O)NC(C)(C)C(=O)N[C@@H](CCCNC(=N)N)C(=O)N[C@@H](C)C(=O)N[C@@H](CCC(N)=O)C(=O)N[C@@H](CCC(=O)O)C(=O)N[C@@H](Cc1ccccc1)C(=O)N[C@H](C(=O)N[C@@H](CCC(=O)O)C(=O)N[C@@H](Cc1c[nH]c2ccccc12)C(=O)N[C@@H](CC(C)C)C(=O)N[C@@H](CCC(=O)O)C(=O)N[C@@H](CO)C(=O)N[C@H](C(=O)O)[C@@H](C)O)C(C)C [Compound 47] (H-HSHGTFTSDYSKYLDL[Aib]RAQEFVEWLEST-OH)
solubility at 5 min [1]: > 2070 µg/mL | Relative activity [2]: 253%
